Experimental data as given in patent publication US5459146A, “4-substituted pyrazoloquinoline derivatives” (Schering Corporation, priority 1993, dated 1995).
≈ marks a conversion by molar mass, not a printed value.

Assays:
[1] = test system: HSV-1 and HSV-2; conditions: added to lidocaine or lidocaine hydrochloride; Haines et al.; cited from earlier work
[2] = test system: HSV Early Gene Expression; assay: Transient Expression Assay for Effects Against HSV Early Gene Expression (β Galactosidase Assay or βgal); assay type: cell-based; conditions: read-out: βgal
Description: (§1) The compound toxicity assay (3H-LEU), Plaque Reduction Assay for HSV Antiviral Activity (Plaque), and Transient Expression Assay for Effects Against HSV Early Gene Expression (β Galactosidase Assay or βgal) were carried out as set forth in U.S. Pat. No. 5,175,151 which is hereby incorporated by reference.

[3] = test system: HSV; assay: Plaque Reduction Assay for HSV Antiviral Activity (Plaque); assay type: cell-based
Description: as §1

[4] = compound toxicity assay (3H-LEU); assay type: cell-based
Description: as §1

[5] = test system: HSV-1; conditions: U.S. Pat. No. 4,757,088; cited from earlier work
[6] = test system: HSV-2; conditions: U.S. Pat. No. 4,757,088; cited from earlier work
[7] = test system: herpes virus; conditions: U.S. Pat. No. 4,757,088; cited from earlier work
[8] = test system: HSV; conditions: Haines et al.; cited from earlier work

Row | SMILES | IC50 [2] [µg/mL] | CC50 [4] [µg/mL] | further results
1 | CC(C)(CO)[C@@H](O)C(=O)NCCCO [dexpanthenol] | – | – | antiviral activity of lidocaine or lidocaine hydrochloride on addition of the substance [1]: significantly enhances
2 | COc1ccc2nc3[nH]nc(C)c3c(OCCN3CCOCC3)c2c1 [Q] | 20 (≈ 58.4 µM) | – | IC50 [3]: 20 µg/mL (≈ 58.4 µM)
3 | CC(=O)Oc1ccc2nc3c(c(C)nn3C(C)=O)c(O)c2c1 [B] | 8 (≈ 26.7 µM) | 15 (≈ 50.1 µM) | –
4 | CC(C)(CO)[C@@H](O)C(=O)NCCC(=O)O [panthothenic acid] | – | – | antiviral activity of lidocaine or lidocaine hydrochloride on addition of the substance [1]: significantly enhances
5 | CCCCCCCn1nc(C)c2c(OC(C)=O)c3cc(OC)ccc3nc21 [I] | 2.8 (≈ 7.58 µM) | < 1 | –
6 | COc1ccc2nc3c(c(C)nn3CCCO)c(OC)c2c1 [P] | 7.2 (≈ 23.9 µM) | – | IC50 [3]: > 20 µg/mL
7 | CC(=O)Oc1c2cc(F)ccc2nc2[nH]nc(C)c12 [G] | 3 (≈ 11.6 µM) | 43 (≈ 166 µM) | –
8 | CCCCC(=O)Oc1ccc2nc3[nH]nc(C)c3c(OC(=O)CCCC)c2c1 [C] | 5 (≈ 13 µM) | 5 (≈ 13 µM) | –
9 | CC(=O)n1nc(C)c2c(O)c3cc(F)ccc3nc21 [H] | 2 (≈ 7.71 µM) | 32 (≈ 123 µM) | –
10 | COc1cc(C)c2[nH]c3c(c(C)nn3C(C)=O)c(=O)c2c1 [K] | 5 (≈ 17.5 µM) | > 100 | –
11 | CCCCCCCn1nc(C)c2c(OC(C)=O)c3cc(C)ccc3nc21 [M] | 3 (≈ 8.49 µM) | < 1 | –
12 | CCN(CC)CC(=O)Nc1c(C)cccc1C [lidocaine, 2-(diethylamino)-N-(2,6-dimethylphenyl)acetamide] | – | – | antiviral activity in cell culture against HSV-1 [5]: antiviral agent; antiviral activity in cell culture against HSV-2 [6]: antiviral agent; treatment of herpes virus infections of mammals [7]: able to treat herpes virus infections of mammals; treatment of HSV oral and genital lesions in humans [8]: particularly effective
13 | CC(=O)n1nc(C)c2c(O)c3cc(Cl)ccc3nc21 [F] | 9 (≈ 32.6 µM) | 37 (≈ 134 µM) | –
14 | COc1ccc2nc3c(c(C)nn3C(C)=O)c(O)c2c1 [E] | 3 (≈ 11.1 µM) | 23 (≈ 84.8 µM) | –
15 | COc1cccc2c(O)c3c(C)nn(C(C)=O)c3nc12 [N] | 3 (≈ 11.1 µM) | 100 (≈ 369 µM) | –
16 | C=CCOc1ccc2nc3c(c(C)nn3CC=C)c(O)c2c1 [R] | 20 (≈ 67.7 µM) | – | IC50 [3]: 20 µg/mL (≈ 67.7 µM)
17 | COc1ccc2nc3[nH]nc(C)c3c(OCCN(C)C)c2c1 [O] | 1.4 (≈ 4.66 µM) | 5.4 (≈ 18 µM) | IC50 [3]: 0.7 µg/mL (≈ 2.33 µM)
18 | CC(=O)Oc1ccc2nc3[nH]nc(C)c3c(OC(C)=O)c2c1 [A] | 3 (≈ 10 µM) | 14 (≈ 46.8 µM) | –
19 | CCCCCCCn1nc(C)c2c(=O)c3cc(C)ccc3[nH]c21 [L] | 3 (≈ 9.63 µM) | 3.4 (≈ 10.9 µM) | –
20 | CC(=O)n1nc(C)c2c(O)c3cc(C)ccc3nc21 [J] | 9 (≈ 35.3 µM) | 100 (≈ 392 µM) | –
21 | CCC(=O)Oc1ccc2nc3[nH]nc(C)c3c(OC(=O)CC)c2c1 [D] | 11 (≈ 33.6 µM) | – | –
